pIC50: −log10 of the molar value.
Legend:
hT2R5 = hT2R5 (Homo sapiens (Human), UniProt Q9NYW4); assay: hT2R panel inhibition, transient HEK293 G16g44, agonist Picoline 10 mM; format: cell-based; conditions: HEK293, compound at 25 μM; receptor activated to EC80 with the corresponding agonist; read-out: screening result against bitter receptor 5
Procedure, shortened: (§1)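 Transfect one hT2R per well set; stimulate with agonist at EC80; add test compound; record reduction of functional response as inhibition.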

hT2R7 = hT2R7 (Homo sapiens (Human), UniProt Q9NYW3); assay: hT2R panel inhibition, transient HEK293 G16g44, agonist Chloroquine pH6.5 10 mM; format: cell-based; conditions: HEK293, compound at 25 μM; receptor activated to EC80 with the corresponding agonist; read-out: screening result against bitter receptor 7
Procedure, shortened: as §1

hT2R3 = hT2R3 (Homo sapiens (Human), UniProt Q9NYW6); assay: hT2R panel inhibition, transient HEK293 G16g44, agonist Chloroquine pH6.5 50 μM; format: cell-based; conditions: HEK293, compound at 25 μM; receptor activated to EC80 with the corresponding agonist; read-out: screening result against bitter receptor 3
Procedure, shortened: as §1

hT2R8 = hT2R8 (Homo sapiens (Human), UniProt Q9NYW2); assay: hT2R panel inhibition, transient HEK293 G16g44, agonist Andrographolide 0.5 mM; format: cell-based; conditions: HEK293, compound at 25 μM; receptor activated to EC80 with the corresponding agonist; read-out: screening result against bitter receptor 8
Protocol: Specifically, in order to evaluate the inhibitory selectivity of the Compound C compound, this compound was tested against 22 human T2Rs which were deorphaned by Senomyx. These receptors and the bitter ligands that activate these human T2Rs are reported in earlier patent applications which are incorporated by reference herein. These 22 human T2Rs are hT2R1, 3, 4, 5, 7, 8, 9, 10, 13, 14, 16, 44, 51, 54, 55, 61, 63, 64, 65, 67, 71 and 75. The amino acid and nucleic acid sequences of all of these T2Rs may be found in these earlier patent applications. These human T2Rs were each individually transiently transfected into HEK293 cells that stably express the promiscuous G protein G16g44 and functional assays were effected using these receptors as disclosed in these same patent applications. […] The ligands were used at EC80 concentration levels. The list of bitter ligands utilized and the tested ligand concentrations are contained in Table 5 of this example.

hT2R63 = assay: hT2R panel inhibition, transient HEK293 G16g44, agonist Caffeine 1 mM or Andrographolide 100 μM; format: cell-based, human; conditions: compound at 25 μM; receptor activated to EC80 with the corresponding agonist
Procedure, shortened: as §1

hT2R55 = assay: hT2R panel inhibition, transient HEK293 G16g44, agonist Cinchonine 150 μM; format: cell-based, human; conditions: compound at 25 μM; receptor activated to EC80 with the corresponding agonist
Procedure, shortened: as §1

hT2R61 = hT2R61 (Homo sapiens (Human), UniProt P59537); assay: hT2R panel inhibition, transient HEK293 G16g44, agonist Aristolochic Acid 25 nM; format: cell-based; conditions: HEK293, compound at 25 μM; receptor activated to EC80 with the corresponding agonist; read-out: screening result against bitter receptor 61
Procedure, shortened: as §1

hT2R71 = hT2R71 (Homo sapiens (Human), UniProt P59536); assay: hT2R panel inhibition, transient HEK293 G16g44, agonist Picric Acid 10 μM; format: cell-based; conditions: HEK293, compound at 25 μM; receptor activated to EC80 with the corresponding agonist; read-out: screening result against bitter receptor 71
Procedure, shortened: as §1

hT2R64 = hT2R64 (Homo sapiens (Human), UniProt P59538); assay: hT2R panel inhibition, transient HEK293 G16g44, agonist Aristolochic Acid 1 μM; format: cell-based; conditions: HEK293, compound at 25 μM; receptor activated to EC80 with the corresponding agonist; read-out: screening result against bitter receptor 64
Procedure, shortened: as §1

hT2R67 = assay: hT2R panel inhibition, transient HEK293 G16g44, agonist Andrographolide 5 μM; format: cell-based, human; conditions: compound at 25 μM; receptor activated to EC80 with the corresponding agonist
Procedure, shortened: as §1

hT2R10 = hT2R10 (Homo sapiens (Human), UniProt Q9NYW0); assay: hT2R panel inhibition, transient HEK293 G16g44, agonist Strychnine 50 μM; format: cell-based; conditions: HEK293, read-out: screening result against bitter receptor 10, compound at 25 μM; receptor activated to EC80 with the corresponding agonist
hT2R16 = hT2R16 (Homo sapiens (Human), UniProt Q9NYV7); assay: hT2R panel inhibition, transient HEK293 G16g44, agonist Salicin 1 mM; format: cell-based; conditions: HEK293, compound at 25 μM; receptor activated to EC80 with the corresponding agonist; read-out: screening result against bitter receptor 16
Procedure, shortened: as §1

hT2R51 = hT2R51 (Homo sapiens (Human), UniProt P59533); assay: hT2R panel inhibition, transient HEK293 G16g44, agonist Prop 2.5 μM; format: cell-based; conditions: HEK293, compound at 25 μM; receptor activated to EC80 with the corresponding agonist; read-out: screening result against bitter receptor 51
Procedure, shortened: as §1

hT2R65 = assay: hT2R panel inhibition, transient HEK293 G16g44, agonist Oleuropein 1 mM; format: cell-based, human; conditions: compound at 25 μM; receptor activated to EC80 with the corresponding agonist
Procedure, shortened: as §1

hT2R75 = hT2R75 (Homo sapiens (Human), UniProt P59540); assay: hT2R panel inhibition, transient HEK293 G16g44, agonist Strychnine 1 μM; format: cell-based; conditions: HEK293, read-out: screening result against bitter receptor 75, compound at 25 μM; receptor activated to EC80 with the corresponding agonist
hT2R44 = assay: hT2R panel inhibition, transient HEK293 G16g44, agonist Denatonium 0.5 μM; format: cell-based, human; conditions: compound at 25 μM; receptor activated to EC80 with the corresponding agonist
Procedure, shortened: as §1

hT2R54 = assay: hT2R panel inhibition, transient HEK293 G16g44, agonist Ranitidine 5 mM; format: cell-based, human; conditions: compound at 25 μM; receptor activated to EC80 with the corresponding agonist
Procedure, shortened: as §1

hT2R14 [1] = biological target: T1, hT2R14 (Homo sapiens (Human), UniProt Q9NYV8); assay: hT2R panel inhibition, transient HEK293 G16g44, agonist Aristolochic Acid 2 μM; format: cell-based; conditions: HEK293, compound at 25 μM; receptor activated to EC80 with the corresponding agonist; read-out: screening result against bitter receptor 14
Procedure, shortened: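 Each hT2R was transiently transfected into HEK293 cells stably expressing G16g44 and assayed functionally for inhibition of agonist response. Agonists were applied at EC80: andrographolide at 0.5 mM for hT2R8 and aristolochic acid at 2 μM for hT2R14.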

hT2R9 = hT2R9 (Homo sapiens (Human), UniProt Q9NYW1); assay: hT2R panel inhibition, transient HEK293 G16g44, agonist Ofloxacin 1 mM; format: cell-based; conditions: HEK293, compound at 25 μM; receptor activated to EC80 with the corresponding agonist; read-out: screening result against bitter receptor 9
Procedure, shortened: as §1

hT2R13 = hT2R13 (Homo sapiens (Human), UniProt Q9NYV9); assay: hT2R panel inhibition, transient HEK293 G16g44, agonist Oxyphenonium 1 mM; format: cell-based; conditions: HEK293, compound at 25 μM; receptor activated to EC80 with the corresponding agonist; read-out: screening result against bitter receptor 13
Procedure, shortened: as §1

hT2R14 [2] = biological target: T1, hT2R14; assay: hT2R14 antagonist high-throughput FLIPR assay, stable cell line with G16g44, agonist aristolochic acid; format: cell-based; conditions: read-out: IC50 on hT2R14 bitter receptor
Procedure, shortened: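 HEK293 cells stably expressing hT2R14 with chimeric G16g44 were stimulated with aristolochic acid (3 μM), giving 70-80% of maximal receptor activity. Test compounds were added together with the agonist, and antagonism was read as fluorescent calcium signal on FLIPR.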

hT2R64, sequence (P59538 whole entry): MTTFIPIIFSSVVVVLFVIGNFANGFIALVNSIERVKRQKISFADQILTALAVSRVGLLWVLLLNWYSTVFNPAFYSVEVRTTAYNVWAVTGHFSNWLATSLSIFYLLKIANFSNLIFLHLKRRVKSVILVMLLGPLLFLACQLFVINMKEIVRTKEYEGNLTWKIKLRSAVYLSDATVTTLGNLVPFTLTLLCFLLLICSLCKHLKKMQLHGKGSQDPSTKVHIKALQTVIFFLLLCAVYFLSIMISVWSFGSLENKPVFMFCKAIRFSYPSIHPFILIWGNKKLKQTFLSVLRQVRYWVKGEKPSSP
hT2R61, sequence (P59537 whole entry): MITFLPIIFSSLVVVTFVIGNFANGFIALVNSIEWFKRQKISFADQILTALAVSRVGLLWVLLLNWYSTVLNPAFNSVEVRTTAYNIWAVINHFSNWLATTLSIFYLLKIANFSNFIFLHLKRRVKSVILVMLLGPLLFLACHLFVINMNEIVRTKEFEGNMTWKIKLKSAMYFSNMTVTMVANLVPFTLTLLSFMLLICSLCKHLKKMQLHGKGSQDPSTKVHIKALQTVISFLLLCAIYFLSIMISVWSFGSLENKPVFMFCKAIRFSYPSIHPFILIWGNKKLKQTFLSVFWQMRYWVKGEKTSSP
hT2R5, sequence (Q9NYW4 whole entry): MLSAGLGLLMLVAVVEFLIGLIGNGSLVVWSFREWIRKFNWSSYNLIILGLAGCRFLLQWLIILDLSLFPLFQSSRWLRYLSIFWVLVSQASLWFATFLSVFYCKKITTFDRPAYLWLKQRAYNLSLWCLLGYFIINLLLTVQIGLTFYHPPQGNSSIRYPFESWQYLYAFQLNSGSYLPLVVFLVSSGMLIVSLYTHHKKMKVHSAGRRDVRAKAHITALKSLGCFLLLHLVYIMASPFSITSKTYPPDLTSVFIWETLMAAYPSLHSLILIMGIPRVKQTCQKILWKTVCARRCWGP
T1 sequence (Q9NYV8 whole entry): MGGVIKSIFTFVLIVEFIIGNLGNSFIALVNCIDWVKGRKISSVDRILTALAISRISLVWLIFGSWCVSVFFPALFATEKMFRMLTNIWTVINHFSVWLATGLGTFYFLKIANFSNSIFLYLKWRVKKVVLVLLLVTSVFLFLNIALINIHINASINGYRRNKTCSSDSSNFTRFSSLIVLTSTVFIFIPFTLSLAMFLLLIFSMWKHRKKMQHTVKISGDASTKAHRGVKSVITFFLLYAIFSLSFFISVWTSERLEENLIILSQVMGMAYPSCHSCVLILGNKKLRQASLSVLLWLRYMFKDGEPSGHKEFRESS
hT2R7, sequence (Q9NYW3 whole entry): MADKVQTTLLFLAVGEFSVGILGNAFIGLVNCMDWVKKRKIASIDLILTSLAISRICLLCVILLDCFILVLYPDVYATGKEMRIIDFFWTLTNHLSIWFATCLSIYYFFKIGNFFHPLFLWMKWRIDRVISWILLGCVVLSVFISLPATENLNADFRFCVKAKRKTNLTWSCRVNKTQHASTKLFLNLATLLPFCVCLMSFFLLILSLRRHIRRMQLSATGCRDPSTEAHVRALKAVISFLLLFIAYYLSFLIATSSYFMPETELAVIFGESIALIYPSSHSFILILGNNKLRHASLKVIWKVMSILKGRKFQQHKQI
hT2R3, sequence (Q9NYW6 whole entry): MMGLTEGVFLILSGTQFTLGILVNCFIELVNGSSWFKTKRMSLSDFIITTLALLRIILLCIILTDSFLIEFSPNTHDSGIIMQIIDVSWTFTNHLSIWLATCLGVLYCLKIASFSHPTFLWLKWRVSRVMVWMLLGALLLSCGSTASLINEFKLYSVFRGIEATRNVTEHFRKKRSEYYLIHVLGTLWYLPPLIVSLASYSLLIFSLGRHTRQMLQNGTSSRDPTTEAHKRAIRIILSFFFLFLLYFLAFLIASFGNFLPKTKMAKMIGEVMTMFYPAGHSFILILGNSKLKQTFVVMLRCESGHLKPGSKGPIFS
hT2R71, sequence (P59536 whole entry): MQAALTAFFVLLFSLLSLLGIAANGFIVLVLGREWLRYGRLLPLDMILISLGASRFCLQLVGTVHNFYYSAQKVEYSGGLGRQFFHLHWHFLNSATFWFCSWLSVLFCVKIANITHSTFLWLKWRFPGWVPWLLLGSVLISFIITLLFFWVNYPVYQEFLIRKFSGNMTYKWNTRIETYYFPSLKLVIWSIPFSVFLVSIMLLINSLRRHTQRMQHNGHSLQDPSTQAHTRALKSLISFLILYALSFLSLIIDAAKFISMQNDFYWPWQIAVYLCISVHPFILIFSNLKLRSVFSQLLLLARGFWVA
hT2R8, sequence (Q9NYW2 whole entry): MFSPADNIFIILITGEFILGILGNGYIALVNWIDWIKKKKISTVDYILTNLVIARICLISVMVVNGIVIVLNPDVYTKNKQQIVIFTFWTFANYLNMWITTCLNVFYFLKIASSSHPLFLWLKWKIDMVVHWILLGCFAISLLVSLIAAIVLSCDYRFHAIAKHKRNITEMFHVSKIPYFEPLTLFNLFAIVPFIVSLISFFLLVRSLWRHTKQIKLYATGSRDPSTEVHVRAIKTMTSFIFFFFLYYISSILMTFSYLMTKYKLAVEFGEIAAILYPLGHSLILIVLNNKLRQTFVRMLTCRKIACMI
hT2R75, sequence (P59540 whole entry): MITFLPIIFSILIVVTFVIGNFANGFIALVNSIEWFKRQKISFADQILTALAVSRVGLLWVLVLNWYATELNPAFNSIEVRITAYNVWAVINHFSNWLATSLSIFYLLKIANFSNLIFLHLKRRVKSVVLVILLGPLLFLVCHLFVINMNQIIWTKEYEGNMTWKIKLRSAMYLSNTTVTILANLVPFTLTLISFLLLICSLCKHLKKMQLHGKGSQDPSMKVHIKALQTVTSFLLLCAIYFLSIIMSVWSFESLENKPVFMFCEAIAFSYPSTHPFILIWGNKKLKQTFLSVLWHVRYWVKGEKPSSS
hT2R10, sequence (Q9NYW0 whole entry): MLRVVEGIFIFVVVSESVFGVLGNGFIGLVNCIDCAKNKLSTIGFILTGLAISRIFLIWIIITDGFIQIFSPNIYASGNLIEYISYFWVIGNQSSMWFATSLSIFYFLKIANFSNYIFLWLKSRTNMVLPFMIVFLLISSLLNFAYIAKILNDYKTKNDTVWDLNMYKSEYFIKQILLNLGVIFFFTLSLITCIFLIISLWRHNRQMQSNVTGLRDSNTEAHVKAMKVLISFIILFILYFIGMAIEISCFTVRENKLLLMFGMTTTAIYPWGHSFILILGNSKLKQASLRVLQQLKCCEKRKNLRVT
hT2R51, sequence (P59533 whole entry): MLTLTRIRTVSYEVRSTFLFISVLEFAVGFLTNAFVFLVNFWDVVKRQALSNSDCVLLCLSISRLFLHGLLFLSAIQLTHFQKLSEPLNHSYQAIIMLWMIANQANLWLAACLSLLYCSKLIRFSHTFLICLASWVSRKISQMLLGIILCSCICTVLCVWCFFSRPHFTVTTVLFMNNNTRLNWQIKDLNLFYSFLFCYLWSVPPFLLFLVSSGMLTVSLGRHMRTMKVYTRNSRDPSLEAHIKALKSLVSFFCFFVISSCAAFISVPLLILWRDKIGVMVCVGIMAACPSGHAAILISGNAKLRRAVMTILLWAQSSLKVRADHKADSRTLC
hT2R16, sequence (Q9NYV7 whole entry): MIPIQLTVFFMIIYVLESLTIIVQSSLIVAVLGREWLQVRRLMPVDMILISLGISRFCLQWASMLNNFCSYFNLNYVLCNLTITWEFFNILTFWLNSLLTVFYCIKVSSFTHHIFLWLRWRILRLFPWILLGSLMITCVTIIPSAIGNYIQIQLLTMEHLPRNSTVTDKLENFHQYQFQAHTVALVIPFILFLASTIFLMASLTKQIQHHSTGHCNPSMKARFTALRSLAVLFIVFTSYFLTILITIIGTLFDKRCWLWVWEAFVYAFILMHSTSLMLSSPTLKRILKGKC
hT2R13, sequence (Q9NYV9 whole entry): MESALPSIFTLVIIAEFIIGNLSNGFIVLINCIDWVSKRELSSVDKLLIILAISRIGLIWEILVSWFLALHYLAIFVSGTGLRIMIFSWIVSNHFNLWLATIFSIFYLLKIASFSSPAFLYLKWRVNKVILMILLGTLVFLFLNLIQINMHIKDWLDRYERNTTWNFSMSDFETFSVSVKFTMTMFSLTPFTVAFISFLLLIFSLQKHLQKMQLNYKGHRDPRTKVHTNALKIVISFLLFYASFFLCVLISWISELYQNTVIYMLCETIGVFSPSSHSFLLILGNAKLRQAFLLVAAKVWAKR
hT2R9, sequence (Q9NYW1 whole entry): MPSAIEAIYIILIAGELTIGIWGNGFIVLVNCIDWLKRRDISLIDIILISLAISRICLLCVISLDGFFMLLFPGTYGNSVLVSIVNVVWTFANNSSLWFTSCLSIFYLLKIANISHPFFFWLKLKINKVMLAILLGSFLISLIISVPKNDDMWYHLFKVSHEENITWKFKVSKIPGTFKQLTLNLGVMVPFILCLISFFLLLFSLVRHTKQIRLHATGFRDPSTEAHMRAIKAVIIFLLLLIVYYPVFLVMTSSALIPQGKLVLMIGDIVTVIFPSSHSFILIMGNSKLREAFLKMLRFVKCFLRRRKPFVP

COc1ccc(CN(Cc2ccsc2)S(=O)(=O)c2ccc(C(=O)O)cc2)cc1 [Example 5-62, 4-(N-(4-methoxybenzyl)-N-(thiophen-3-ylmethyl)sulfamoyl)benzoic acid]
inhibition at 25 µM (hT2R5): 20 to 40% | inhibition at 25 µM (hT2R7): 20 to 40% | inhibition at 25 µM (hT2R3): 20 to 40% | inhibition at 25 µM (hT2R8): 20 to 40% | screening result against bitter receptor 63 (hT2R63): ++++ (80% or greater inhibition = ++++) | screening result against bitter receptor 55 (hT2R55): +++ (60% to 80% inhibition = +++) | inhibition at 25 µM (hT2R61): 40 to 60% | inhibition at 25 µM (hT2R71): 20 to 40% | inhibition at 25 µM (hT2R64): 40 to 60% | screening result against bitter receptor 67 (hT2R67): + (20% to 40% inhibition = +)

Cc1ccc(CN(Cc2ccccc2)S(=O)(=O)c2ccc(C(=O)O)cc2)cc1 [Example 5-70, 4-(N-benzyl-N-(4-methylbenzyl)sulfamoyl)benzoic acid]
inhibition at 25 µM (hT2R5): 40 to 60% | inhibition at 25 µM (hT2R7): 20 to 40% | inhibition at 25 µM (hT2R10): 40 to 60% | inhibition at 25 µM (hT2R16): 40 to 60% | inhibition at 25 µM (hT2R3): 40 to 60% | inhibition at 25 µM (hT2R51): 40 to 60% | screening result against bitter receptor 65 (hT2R65): ++ (40% to 60% inhibition = ++) | inhibition at 25 µM (hT2R8): 20 to 40% | inhibition at 25 µM (hT2R75): 20 to 40% | screening result against bitter receptor 63 (hT2R63): ++++ (80% or greater inhibition = ++++) | screening result against bitter receptor 44 (hT2R44): + (20% to 40% inhibition = +) | screening result against bitter receptor 55 (hT2R55): +++ (60% to 80% inhibition = +++) | inhibition at 25 µM (hT2R61): 40 to 60% | screening result against bitter receptor 54 (hT2R54): ++ (40% to 60% inhibition = ++) | inhibition at 25 µM (hT2R14 [1]): 60 to 80% | inhibition at 25 µM (hT2R71): 40 to 60% | inhibition at 25 µM (hT2R64): 20 to 40% | screening result against bitter receptor 67 (hT2R67): + (20% to 40% inhibition = +)

COc1ccc(CN(Cc2cccc(Cl)c2)S(=O)(=O)c2ccc(C(=O)O)cc2)cc1 [Example 5-14, 4-(N-(3-chlorobenzyl)-N-(4-methoxybenzyl)sulfamoyl)benzoic acid]
inhibition at 25 µM (hT2R5): 60 to 80% | inhibition at 25 µM (hT2R7): 60 to 80% | inhibition at 25 µM (hT2R10): > 80% | inhibition at 25 µM (hT2R16): 60 to 80% | inhibition at 25 µM (hT2R9): 40 to 60% | inhibition at 25 µM (hT2R3): > 80% | inhibition at 25 µM (hT2R13): 20 to 40% | inhibition at 25 µM (hT2R51): 60 to 80% | screening result against bitter receptor 65 (hT2R65): ++++ (80% or greater inhibition = ++++) | inhibition at 25 µM (hT2R8): 20 to 40% | inhibition at 25 µM (hT2R75): 40 to 60% | screening result against bitter receptor 63 (hT2R63): ++++ (80% or greater inhibition = ++++) | screening result against bitter receptor 44 (hT2R44): +++ (60% to 80% inhibition = +++) | screening result against bitter receptor 55 (hT2R55): ++++ (80% or greater inhibition = ++++) | inhibition at 25 µM (hT2R61): > 80% | screening result against bitter receptor 54 (hT2R54): ++++ (80% or greater inhibition = ++++) | inhibition at 25 µM (hT2R14 [1]): > 80% | inhibition at 25 µM (hT2R71): > 80% | pIC50 (hT2R14 [2]): 5.73 | inhibition at 25 µM (hT2R64): > 80% | screening result against bitter receptor 67 (hT2R67): ++ (40% to 60% inhibition = ++)

From patent US9247759B2, “Identification of human T2R receptors that respond to bitter compounds that elicit the bitter taste in compositions, and the use thereof in assays to identify compounds that inhibit (block) bitter taste in compositions and use thereof” (SENOMYX, INC., priority 2007, dated 2016)
